Activity calls are given as the source filed them.
Columns and labels:
[1] = molecular target: FAD-linked sulfhydryl oxidase ALR (Homo sapiens, UniProt P55789); test: ALR-catalysed DTT oxidation blockers – biochemical, H2O2 detection, luminescence, cherry-pick, dose response (AID 493248)
[2] = Luminescence Cell-Based Dose Response HTS to Identify Activators of Luciferase Translation or Activity in H4 […] Cells. [Related pubchem assays: 1829 (Project Summary), 1814 (Primary HTS)]; assay type: functional
H4 = test: Luminescence Cell-Based Dose Response HTS to Identify Activators of 5'UTR Stem-Loop Driven Prion Protein mRNA Translation in H4 Neuroglioblastoma Cells. [Related pubchem assays: 1829 (Project Summary), 1814 (Primary HTS)]; assay type: functional; details: Homo sapiens
Fatty acid synthase [3] = molecular target: T1, Fatty acid synthase (Homo sapiens, UniProt P49327); test: inhibition of human FAS-TE enzyme activity – biochemical, kinetic fluorescence intensity, dose response (AID 624326); assay type: functional;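 also: rate of fluorescence rise from hydrolysis of a fluorogenic O-methyl fluorescein ester substrate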
T1 sequence (P49327 whole entry): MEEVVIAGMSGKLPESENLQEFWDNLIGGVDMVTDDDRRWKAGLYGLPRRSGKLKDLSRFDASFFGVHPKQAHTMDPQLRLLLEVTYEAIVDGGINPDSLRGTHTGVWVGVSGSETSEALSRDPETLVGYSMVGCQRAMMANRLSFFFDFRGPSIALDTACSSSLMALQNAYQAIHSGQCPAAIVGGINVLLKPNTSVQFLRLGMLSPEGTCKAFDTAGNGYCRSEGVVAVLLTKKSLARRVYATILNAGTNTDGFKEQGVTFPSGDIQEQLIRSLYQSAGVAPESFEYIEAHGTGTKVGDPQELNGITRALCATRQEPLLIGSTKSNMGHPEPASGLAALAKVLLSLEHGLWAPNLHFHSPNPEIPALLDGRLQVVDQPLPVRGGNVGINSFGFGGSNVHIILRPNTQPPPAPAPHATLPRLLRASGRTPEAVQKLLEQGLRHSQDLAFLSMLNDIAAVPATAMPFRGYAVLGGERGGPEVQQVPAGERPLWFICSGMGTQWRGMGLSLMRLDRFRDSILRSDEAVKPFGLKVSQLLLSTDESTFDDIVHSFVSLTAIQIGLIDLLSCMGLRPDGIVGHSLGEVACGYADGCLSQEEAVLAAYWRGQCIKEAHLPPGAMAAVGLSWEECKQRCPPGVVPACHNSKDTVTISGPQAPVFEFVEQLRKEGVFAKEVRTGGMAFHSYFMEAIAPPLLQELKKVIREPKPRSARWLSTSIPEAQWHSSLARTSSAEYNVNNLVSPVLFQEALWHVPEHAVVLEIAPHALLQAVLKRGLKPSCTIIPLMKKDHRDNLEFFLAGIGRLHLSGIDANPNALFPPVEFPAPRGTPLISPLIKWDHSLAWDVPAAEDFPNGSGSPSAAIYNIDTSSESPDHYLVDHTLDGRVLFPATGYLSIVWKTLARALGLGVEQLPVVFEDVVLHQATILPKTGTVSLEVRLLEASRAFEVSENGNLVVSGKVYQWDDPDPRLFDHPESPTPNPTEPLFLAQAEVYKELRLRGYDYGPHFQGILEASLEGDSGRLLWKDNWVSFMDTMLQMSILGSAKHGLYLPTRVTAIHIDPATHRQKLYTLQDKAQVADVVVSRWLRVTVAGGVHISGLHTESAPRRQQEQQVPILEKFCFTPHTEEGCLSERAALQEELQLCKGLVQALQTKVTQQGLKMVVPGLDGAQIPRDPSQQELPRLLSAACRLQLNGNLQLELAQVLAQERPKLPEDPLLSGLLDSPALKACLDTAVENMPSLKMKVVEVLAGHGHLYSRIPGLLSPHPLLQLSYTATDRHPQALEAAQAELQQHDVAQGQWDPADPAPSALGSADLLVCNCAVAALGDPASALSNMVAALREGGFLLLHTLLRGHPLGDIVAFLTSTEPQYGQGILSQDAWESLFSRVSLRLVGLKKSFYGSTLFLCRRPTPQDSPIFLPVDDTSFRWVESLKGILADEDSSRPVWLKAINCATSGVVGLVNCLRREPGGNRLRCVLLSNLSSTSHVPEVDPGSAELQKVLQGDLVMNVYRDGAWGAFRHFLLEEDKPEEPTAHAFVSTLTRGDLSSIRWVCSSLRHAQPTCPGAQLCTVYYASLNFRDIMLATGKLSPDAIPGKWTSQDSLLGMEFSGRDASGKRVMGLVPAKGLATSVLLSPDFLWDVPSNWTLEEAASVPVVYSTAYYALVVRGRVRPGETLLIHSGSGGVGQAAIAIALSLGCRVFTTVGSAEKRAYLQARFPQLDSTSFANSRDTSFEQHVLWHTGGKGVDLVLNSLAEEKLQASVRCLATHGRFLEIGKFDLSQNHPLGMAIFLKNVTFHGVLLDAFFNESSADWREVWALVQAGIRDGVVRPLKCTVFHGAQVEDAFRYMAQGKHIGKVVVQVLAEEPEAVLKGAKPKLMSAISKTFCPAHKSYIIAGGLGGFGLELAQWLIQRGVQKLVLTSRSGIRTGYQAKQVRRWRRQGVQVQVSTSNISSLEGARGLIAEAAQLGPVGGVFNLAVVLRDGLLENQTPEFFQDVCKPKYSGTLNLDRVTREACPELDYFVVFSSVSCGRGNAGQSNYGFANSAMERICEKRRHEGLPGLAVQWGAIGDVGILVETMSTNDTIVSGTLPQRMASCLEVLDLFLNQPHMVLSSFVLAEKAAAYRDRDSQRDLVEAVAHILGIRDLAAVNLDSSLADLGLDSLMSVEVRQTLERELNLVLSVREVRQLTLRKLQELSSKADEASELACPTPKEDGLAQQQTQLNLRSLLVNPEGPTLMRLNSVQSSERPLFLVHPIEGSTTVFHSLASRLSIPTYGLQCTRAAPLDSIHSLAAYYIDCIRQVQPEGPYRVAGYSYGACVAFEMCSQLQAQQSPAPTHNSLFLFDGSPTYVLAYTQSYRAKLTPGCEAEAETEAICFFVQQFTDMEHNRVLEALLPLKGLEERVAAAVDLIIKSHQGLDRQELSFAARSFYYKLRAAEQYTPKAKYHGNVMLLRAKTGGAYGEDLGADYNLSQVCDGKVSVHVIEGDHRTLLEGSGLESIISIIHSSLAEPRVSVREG

Fatty acid synthase [4] = molecular target: T1, Fatty acid synthase; test: inhibition of human FAS-TE enzyme activity – biochemical, endpoint fluorescence intensity, uHTS hits, dose response (AID 624327); assay type: functional;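 also: fluorescence from hydrolysis of an O-methyl fluorescein acyl ester substrate by the enzyme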
Paired box protein Pax-8 = Paired box protein Pax-8 (Homo sapiens, UniProt Q06710); test: PAX8 transcriptional activity inhibition in RMG-I – RMG-I cells, luciferase, cherry-pick, dose response (AID 687027); assay type: functional, cell-based;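 also: luciferase reporter driven by Pax8 target thyroperoxidase promoter measured by SteadyGlo luminescence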
Sequence of Paired box protein Pax-8 (Q06710 whole entry): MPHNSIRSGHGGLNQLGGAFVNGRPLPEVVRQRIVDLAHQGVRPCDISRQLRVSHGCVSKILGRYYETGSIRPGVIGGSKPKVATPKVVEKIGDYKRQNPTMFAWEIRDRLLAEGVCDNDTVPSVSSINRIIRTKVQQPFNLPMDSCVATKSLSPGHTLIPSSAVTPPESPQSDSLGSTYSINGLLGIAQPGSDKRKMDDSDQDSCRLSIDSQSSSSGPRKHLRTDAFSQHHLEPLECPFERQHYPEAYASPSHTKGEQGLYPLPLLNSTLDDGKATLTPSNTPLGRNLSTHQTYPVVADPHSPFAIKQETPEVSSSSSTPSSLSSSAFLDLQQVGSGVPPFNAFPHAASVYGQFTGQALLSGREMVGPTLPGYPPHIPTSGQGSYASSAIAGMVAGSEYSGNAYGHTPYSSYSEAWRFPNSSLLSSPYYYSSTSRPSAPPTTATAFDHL

[5] = viability of uninfected HEp-2 cells – cell-based, HTS, cytotoxicity control for RSV inhibitor project, dose response (AID 2410); assay type: functional; details: human respiratory syncytial virus
[6] = NIH-3T3 fibroblast cytotoxicity, dose response, cytotoxicity control, cell-based, fluorescence, Alamar Blue, secondary assay (AID 2327); assay type: functional;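 also: NIH-3T3 mouse fibroblasts cultured with fluconazole at 8 µg/mL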
[7] = molecular target: T2, Rac GTPase-activating protein 1 (Homo sapiens, UniProt Q9H0H5); test: blockers of MgcRacGAP-driven Rac1 GTP hydrolysis – biochemical, ADP Hunter fluorescence, primary and confirmatory, confirmation (AID 624330); assay type: functional
T2 sequence (Q9H0H5 whole entry): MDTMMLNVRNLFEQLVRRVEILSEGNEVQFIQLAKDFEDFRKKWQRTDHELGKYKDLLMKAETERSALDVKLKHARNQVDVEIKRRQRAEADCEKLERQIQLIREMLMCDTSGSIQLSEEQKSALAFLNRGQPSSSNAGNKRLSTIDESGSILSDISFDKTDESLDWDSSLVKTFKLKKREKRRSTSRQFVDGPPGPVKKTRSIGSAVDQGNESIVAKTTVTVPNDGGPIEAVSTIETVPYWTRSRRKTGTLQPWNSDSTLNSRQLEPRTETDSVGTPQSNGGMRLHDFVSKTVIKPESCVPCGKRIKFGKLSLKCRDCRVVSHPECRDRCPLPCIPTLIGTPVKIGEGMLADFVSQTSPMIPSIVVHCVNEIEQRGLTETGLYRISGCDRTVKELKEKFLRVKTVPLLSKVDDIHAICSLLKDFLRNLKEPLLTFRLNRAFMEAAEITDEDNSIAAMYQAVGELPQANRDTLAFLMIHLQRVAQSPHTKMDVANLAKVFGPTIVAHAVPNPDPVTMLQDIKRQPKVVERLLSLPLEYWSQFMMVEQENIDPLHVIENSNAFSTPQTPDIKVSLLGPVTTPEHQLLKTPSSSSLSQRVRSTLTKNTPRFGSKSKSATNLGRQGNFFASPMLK

Sequence of FAD-linked sulfhydryl oxidase ALR (P55789 whole entry): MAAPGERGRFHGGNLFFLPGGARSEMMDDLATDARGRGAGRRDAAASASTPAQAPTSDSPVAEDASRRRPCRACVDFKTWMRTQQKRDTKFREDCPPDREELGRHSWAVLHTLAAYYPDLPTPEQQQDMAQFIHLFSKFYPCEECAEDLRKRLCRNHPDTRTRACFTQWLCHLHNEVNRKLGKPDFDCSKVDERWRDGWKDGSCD

CCS(=O)(=O)N1CCN=C1SCc1cccnc1
AC50 [1]: 2.06 µM (active)

COc1ccc(-c2ncc3ccccn23)cc1
EC50 [2]: 101 µM (active)
EC50 (H4): 32.1 µM (active)

O=C(COC(=O)c1cc([N+](=O)[O-])ccc1N1CCOCC1)c1ccccc1
IC50 (Fatty acid synthase [3]): 6.51 µM (active)
IC50 (Fatty acid synthase [4]): 9.63 µM (active)

CC(OC(=O)c1cccc([N+](=O)[O-])c1)C(=O)N1CCc2ccccc21 (stereo unspecified)
IC50 (Fatty acid synthase [3]): 3.98 µM (active)
IC50 (Fatty acid synthase [4]): 3.92 µM (active)

CCCC(C)C1c2c(c(C)c(C)oc2=O)Oc2c(C)c(C)oc(=O)c21 (stereo unspecified)
IC50 (Fatty acid synthase [3]): 8.38 µM (active)
IC50 (Fatty acid synthase [4]): 9.33 µM (active)

CCN(CC)c1ccc(NS(=O)(=O)c2ccc3c(c2)oc(=O)n3C)c(C)c1
AC50 [1]: 0.409 µM (active)

O=[N+]([O-])c1ccc(CSc2ccc(S(=O)(=O)N3CCCC3)cn2)cc1
IC50 (Fatty acid synthase [3]): 10.6 µM (active)
IC50 (Fatty acid synthase [4]): 12.1 µM (active)

CC(C(=O)NC1C=CS(=O)(=O)C1)N1C(=O)/C(=C\c2ccccc2)SC1=S (stereo unspecified)
AC50 [1]: 0.359 µM (active)

CC(=O)Nc1sc(NC(=O)c2ccccc2)nc1-c1cccs1
AC50 [1]: 3.14 µM (active)

CCCN(C)C[C@H]1OCCCC[C@@H](C)Oc2ccc(NC(=O)Nc3ccc(C(F)(F)F)cc3)cc2C(=O)N([C@H](C)CO)C[C@H]1C
AC50 (Paired box protein Pax-8): 23.1 µM (active)

COc1ccc(N2CCN(C(=O)c3ccc(-n4nc(C)cc4C)cc3)CC2)cc1
CC50 [5]: 42 µM (active)

COc1ccc(C(=O)CN(CCC(=O)O)S(=O)(=O)c2ccc([N+](=O)[O-])cc2)cc1
IC50 (Fatty acid synthase [3]): 6.15 µM (active)
IC50 (Fatty acid synthase [4]): 3.51 µM (active)

CCOC(=O)N/N=C1\CCc2ccccc21
EC50 [2]: 7.73 µM (active)
EC50 (H4): 11.7 µM (active)

O=C(Cc1ccc(Cl)cc1)Nc1ccc(Br)cc1
EC50 [6]: > 150 µM (inconclusive)

Cc1ccc(/C=C/c2ccc(=O)n(Cc3ccc(F)cc3)n2)cc1
IC50 (Fatty acid synthase [3]): 14 µM (active)
IC50 (Fatty acid synthase [4]): 11.8 µM (active)

COc1ccc(NC(=O)N2CCN(c3nc(-c4cccc(OC)c4)cs3)CC2)cc1
CC50 [5]: 9.75 µM (active)

O=C1NC(=O)N(c2ccc(C(=O)O)cc2)C(=O)/C1=C/c1c[nH]c2ccccc12
AC50 [1]: 0.177 µM (active)
IC50 [7]: 97.5 µM (active)

Reference: ChEMBL document CHEMBL1201862, “PubChem BioAssay data set” (2004)
